Several values for one entry are separate records, joined by “and”; a condition that tells them apart may be missing. Equal entries are not always repeated. Where two headings read alike, the source gives them in different places.
Legend:
Experiment in all cases: greenhouse post-emergence herbicidal test
[1] = test system: ABUTH; type: in vivo, Abutilon theophrast; design: key to herbicidal activity against ABUTH found: rating on a scale from 0 to 100; settings: post emergence; for pest or weed control at 31.25 g/ha / pest or weed control at 62.5 g/ha: Abutilon theophrasti, post-emergence, 480 h, read-out: herbicidal activity against ABUTH found
Procedure, shortened: (§1)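 Plants were grown in loamy sand (approx. 4.6% humus, 69.9% sand) to 1–15 cm and sprayed post-emergence with actives suspended or emulsified in water, from a 10% by weight emulsion concentrate. Kept at 10-25° C or 20-35° C by species, damage was scored 0–100 at 20 days.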

[2] = test system: PAPRH; type: in vivo, Papaver rhoeas; design: key: rating on a scale from 0 to 100
Procedure, shortened: as §1

[3] = test system: SASKR; type: in vivo, Salsola kali; design: key: scale 0 to 100
Description: The culture containers used were plastic pots containing medium loamy sand with approximately 4.6% of humus and 69.9% sand as substrate. The seeds of the test plants were sown separately for each species.
For the post-emergence treatment, the test plants were grown to a plant height of from 1 to 15 cm, depending on the plant habit, and only then treated with the active compounds which had been suspended or emulsified in water. To this end, the test plants were either sown directly, and grown in the same containers, or they were first grown separately as seedlings and transplanted into the test containers a few days prior to treatment.
Depending on the species, the plants were kept at 10-25° C. and 20-35° C., respectively.
The test period extended over 1 to 3 weeks. During this time, the plants were tended and their response to the individual treatments was evaluated 20 days after treatment except mentioned otherwise.
Evaluation was carried out using a scale from 0 to 100. 100 means no emergence of the plants, or complete destruction of at least the above-ground parts, and 0 means no damage or normal course of growth.
The respective stated components A and B, and, if appropriate, C, were formulated as a 10% by weight strength emulsion concentrate and, with addition of the amount of solvent system, introduced into the spray liquor used for applying the active compound. In the examples, the solvent used was water.
In the examples below, using the method of S. R. Colby (1967) “Calculating synergistic and antagonistic responses of herbicide combinations”, Weeds 15, p. 22 ff., the value E, which is expected if the activity of the individual active compounds is only additive, was calculated. E=X+Y−(X·Y/100)

[4] = I.1 31.25 g/ha, B.88 1 g/ha a.i.
[5] = applied alone at 31.25 g/ha a.i.

O=C(O)c1cc(C2CC2)nc2onc(C3CC3)c12 [I.1]
pest or weed control at 31.25 g/ha ([1]; I.1 alone 31.25 g/ha a.i.): 0% | pest or weed control at 62.5 g/ha ([1]; I.1 alone 62.5 g/ha a.i.): 65% | pest or weed control at 62.5 g/ha ([1]; 62.5 g/ha a.i.): 25% | pest or weed control at 31.25 g/ha ([1]; I.1 31.25 g/ha a.i.): 20% | pest or weed control at 31.25 g/ha ([1]; single active, 31.25 g/ha a.i.): 0% | herbicidal activity against ABUTH found ([1]; 6 days after treatment, g/ha a.i.: I.1 31.25, B.96 35, mixture 31.25+35): 35 | herbicidal activity against ABUTH found ([1]; 6 days after treatment, g/ha a.i.: I.1 31.25, B.96 70, mixture 31.25+70): 35 | herbicidal activity against ABUTH found ([1]; 6 days after treatment, g/ha a.i.: I.1 31.25, naptalam 100, mixture 31.25+100): 35 | herbicidal activity against ABUTH found [1, 4]: 60 | herbicidal activity against ABUTH found ([1]; I.1 31.25 g/ha, B.89 25 g/ha a.i.): 60 | herbicidal activity against ABUTH found ([1]; I.1 62.5 g/ha, B.167 62.5 g/ha a.i.): 0 | herbicidal activity against ABUTH found ([1]; I.1 62.5 g/ha, B.167 125 g/ha a.i.): 0 | herbicidal activity against ABUTH found ([1]; a.i. g/ha: I.1 7.8, B.67 125, 20 days after treatment): 0% | herbicidal activity against ABUTH found ([1]; a.i. g/ha: I.1 15.6, B.67 125, 20 days after treatment): 30% | herbicidal activity against ABUTH found ([1]; a.i. g/ha: I.1 31.25, B.67 125, 20 days after treatment): 60% | herbicidal activity against ABUTH found ([1]; a.i. g/ha: I.1 31.25, B.67 125, 20 days after treatment, sub-table r36-r43): 60% | herbicidal activity against ABUTH found ([1]; a.i. g/ha: I.1 62.5, B.67 125, 20 days after treatment): 90% | herbicidal activity against ABUTH found ([1]; a.i. g/ha: I.1 62.5, B.69 25, 20 days after treatment): 50% | herbicidal activity against ABUTH found ([1]; application rate a.i.: I.1 20.8 g/ha, B.107 (topramezone) 6 g/ha, alone or as mixture (composition 1.107)): 0 | herbicidal activity against ABUTH found ([1]; application rate a.i.: I.1 31.25 g/ha, B.139 (pyroxasulfone) 25 g/ha, alone or as mixture (composition 1.139)): 10 | herbicidal activity against ABUTH found ([1]; application rate a.i.: I.1 62.5 g/ha, B.107 (topramezone) 6 g/ha, alone or as mixture (composition 1.107)): 66 | herbicidal activity against ABUTH found [1, 5]: 30 and 25 | herbicidal activity against ABUTH found ([1]; applied alone at 62.5 g/ha a.i.): 50 and 85 | herbicidal activity against ABUTH found ([1]; applied alone at 125 g/ha a.i.): 60 | herbicidal activity against ABUTH found ([1]; g/ha a.i.: I.1 31.25, B.20 2, mixture 31.25+2): 15 | herbicidal activity against ABUTH found ([1]; g/ha a.i.: I.1 31.25, B.20 4, mixture 31.25+4): 15 | herbicidal activity against ABUTH found ([1]; g/ha a.i.: I.1 31.25, B.24 2, mixture 31.25+2): 15 | herbicidal activity against ABUTH found ([1]; g/ha a.i.: I.1 31.25, B.52 2.5, mixture 31.25+2.5): 15 | herbicidal activity against ABUTH found ([1]; g/ha a.i.: I.1 31.25, B.52 5, mixture 31.25+5): 15 | herbicidal activity against ABUTH found ([1]; g/ha a.i.: I.1 62.5, B.52 2.5, mixture 62.5+2.5): 60 | herbicidal activity against PAPRH found ([2]; 62.5 g/ha a.i.): 50 | herbicidal activity against PAPRH found ([2]; I.1 15.62 g/ha, B.103 15 g/ha a.i.): 30 | herbicidal activity against PAPRH found ([2]; I.1 15.62 g/ha, B.88 2 g/ha a.i.): 70 | herbicidal activity against PAPRH found ([2]; I.1 31.25 g/ha, B.103 15 g/ha a.i.): 30 | herbicidal activity against PAPRH found [2, 4]: 75 | herbicidal activity against PAPRH found ([2]; I.1 31.25 g/ha, B.88 2 g/ha a.i.): 75 | herbicidal activity against PAPRH found ([2]; I.1 31.25 g/ha, B.95 1 g/ha a.i.): 75 | herbicidal activity against PAPRH found ([2]; I.1 62.5 g/ha, B.57 2 g/ha a.i.): 75 | herbicidal activity against PAPRH found ([2]; I.1 62.5 g/ha, B.88 1 g/ha a.i.): 75 | herbicidal activity against PAPRH found ([2]; I.1 62.5 g/ha, B.88 2 g/ha a.i.): 75 | herbicidal activity against PAPRH found ([2]; I.1 62.5 g/ha, B.95 1 g/ha a.i.): 75 | herbicidal activity against PAPRH found ([2]; I.1 alone 31.25 g/ha a.i.): 70 | herbicidal activity against PAPRH found ([2]; application rate a.i.: I.1 62.5 g/ha, B.40 (imazethapyr) 7.5 g/ha, alone or as mixture (composition 1.40)): 65 | herbicidal activity against PAPRH found ([2]; application rate a.i.: I.1 62.5 g/ha, B.87 (carfentrazone-ethyl) 1.75 g/ha, alone or as mixture (composition 1.87)): 85 | herbicidal activity against PAPRH found [2, 5]: 65 | herbicidal activity against SASKAR found ([3]; 31.25 g/ha a.i.): 60 | herbicidal activity against SASKR found ([3]; 31.25 g/ha a.i.): 20 | herbicidal activity against SASKR found ([3]; 6 days after treatment, g/ha a.i.: I.1 31.25, naptalam 200, mixture 31.25+200): 65 | herbicidal activity against SASKR found ([3]; 6 days after treatment, g/ha a.i.: I.1 62.5, B.96 140, mixture 62.5+140): 65 | herbicidal activity against SASKR found ([3]; 6 days after treatment, g/ha a.i.: I.1 62.5, naptalam 50, mixture 62.5+50): 65 | herbicidal activity against SASKR found ([3]; 6 days after treatment, g/ha a.i.: I.1 62.5, naptalam 200, mixture 62.5+200): 65 | herbicidal activity against SASKR found ([3]; application rate a.i.: I.1 31.25 g/ha, B.84 (paraquat-dichloride) 17.5 g/ha, alone or as mixture (composition 1.84)): 10

From patent publication US10881110B2, “Herbicidal compositions comprising isoxazolo[5,4-b]pyridines” (BASF SE, priority 2014, dated 2021)
